Among the test systems are MDA-MB-231 breast; A498 renal; SK-MEL-2 melanoma; HCC-2998 colon; HOP-92 NSCLC; PC-3 prostate; SF-295 CNS; SR leukemia; HOP-62 NSCLC; KM12 colon.
Common to all, as to assay: growth of human tumour cells (NCI), 48 h

Each structure is given as a SMILES string.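 Cells were grown in 96-well plates and exposed to each compound for 48 hours at five concentrations; endpoints were interpolated linearly between bracketing concentrations, or set to the highest concentration if not reached. GI50 = concentration required for 50% inhibition of growth. At the TGI there is no net growth.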

For `COc1ccccc1/C=N\N=C(N/N=C/c1ccccc1OC)N/N=C/c1ccccc1OC`, the GI50 is 3.2 µM with MDA-MB-231 breast; 2.73 µM with A498 renal; 5.51 µM in the assay with SK-MEL-2 melanoma; 3.82 µM in the assay with HCC-2998 colon; 1.92 µM in the assay with HOP-92 NSCLC; 2.77 µM in the assay on PC-3 prostate. The GI50 with SF-295 CNS is 2.03 µM; in the assay on SR leukemia, 3.16 µM; in the assay on HOP-62 NSCLC, 2.91 µM; in the assay with KM12 colon it was 2.96 µM. Besides, the TGI in the assay on MDA-MB-231 breast is 9.11 µM; in the assay on A498 renal, 9.92 µM; with SK-MEL-2 melanoma, above 100 µM; with HCC-2998 colon it was above 100 µM; in the assay with HOP-92 NSCLC, 5.34 µM; in the assay on PC-3 prostate, above 100 µM. Moreover, the TGI in the assay with SF-295 CNS was found to be 5.11 µM; in the assay on SR leukemia, 12.5 µM; with HOP-62 NSCLC, 13.4 µM; in the assay on KM12 colon, 16.2 µM.

Take `CC(=O)O/N=C1/C(c2c(O)[nH]c3cc(Br)ccc23)=Nc2ccccc21`: the GI50 is 1.53 µM with MDA-MB-231 breast; 0.429 µM in the assay with A498 renal; 1.28 µM with SK-MEL-2 melanoma; 1.68 µM in the assay with HCC-2998 colon; 1.93 µM in the assay with HOP-92 NSCLC; 1.33 µM in the assay on PC-3 prostate. The GI50 in the assay with SF-295 CNS was 2 µM; with SR leukemia it was 1.63 µM; in the assay with HOP-62 NSCLC, 2.05 µM; in the assay with KM12 colon, 0.398 µM. The TGI in the assay with MDA-MB-231 breast worked out at 3.77 µM; in the assay with A498 renal, 1.2 µM; with SK-MEL-2 melanoma, 2.89 µM; with HCC-2998 colon it was 3.08 µM; in the assay on HOP-92 NSCLC, 5.35 µM; in the assay with PC-3 prostate, 3.51 µM. In addition, the TGI is 5.47 µM with SF-295 CNS, 5.9 µM with SR leukemia, 4.53 µM in the assay with HOP-62 NSCLC and 1.91 µM in the assay on KM12 colon.

As for `O=C(Nc1ccc(Cl)cc1)c1cc(-c2ccc(Cl)cc2)c2sc(=O)[nH]c2n1`, the GI50 with MDA-MB-231 breast was 1.66 µM; in the assay on A498 renal, 0.472 µM; in the assay on SK-MEL-2 melanoma, 1.18 µM; with HCC-2998 colon, 2.17 µM; in the assay on HOP-92 NSCLC it was 0.526 µM; in the assay with PC-3 prostate, 1.66 µM. Besides, the GI50 is 1.56 µM with SF-295 CNS, 3.63 µM in the assay with SR leukemia, 2.58 µM in the assay on HOP-62 NSCLC and 1.58 µM in the assay with KM12 colon. In addition, the TGI in the assay with MDA-MB-231 breast was determined as 3.56 µM; with A498 renal, 3.42 µM; with SK-MEL-2 melanoma, 3.99 µM; in the assay with HCC-2998 colon, 14.5 µM; with HOP-92 NSCLC, 3.94 µM; in the assay with PC-3 prostate, 12.2 µM. In addition, the TGI with SF-295 CNS was 4.37 µM; in the assay with SR leukemia it was above 100 µM; with HOP-62 NSCLC, 8.85 µM; with KM12 colon it was 10.3 µM.

Take `O=C(Nc1ccccc1O)c1ccc(Oc2cccc(C(=O)Nc3ccccc3O)c2)cc1`: the GI50 with MDA-MB-231 breast is 2.22 µM; in the assay on A498 renal, 0.0225 µM; with SK-MEL-2 melanoma it was 1.73 µM; in the assay with HCC-2998 colon, 3.62 µM; with HOP-92 NSCLC, 1.57 µM; in the assay with PC-3 prostate, 1.84 µM. Also, the GI50 with SF-295 CNS was 2.88 µM; in the assay on SR leukemia it was 0.56 µM; in the assay on HOP-62 NSCLC, 2.24 µM; in the assay with KM12 colon, 3.17 µM. For the same compound, the TGI was 11.8 µM in the assay with MDA-MB-231 breast; 5.06 µM in the assay on A498 renal; 5.87 µM in the assay with SK-MEL-2 melanoma; 11.9 µM in the assay with HCC-2998 colon; 6.07 µM in the assay with HOP-92 NSCLC; 10.4 µM with PC-3 prostate. Moreover, the TGI in the assay with SF-295 CNS stood at 9.85 µM; in the assay on SR leukemia it was 11.4 µM; with HOP-62 NSCLC, 12.5 µM; in the assay with KM12 colon it was 11.9 µM.

For the compound `NS(=O)(=O)c1cccc(N=Cc2c(O)[nH]c3ccccc23)c1`, the GI50 in the assay on MDA-MB-231 breast, with A498 renal, in the assay with SK-MEL-2 melanoma, in the assay with HCC-2998 colon, in the assay with HOP-92 NSCLC and in the assay with PC-3 prostate was above 25 µM throughout. In addition, the GI50 was above 25 µM in the assay on SF-295 CNS, above 25 µM in the assay on SR leukemia, above 25 µM in the assay with HOP-62 NSCLC and 8.04 µM in the assay on KM12 colon. The TGI with MDA-MB-231 breast, in the assay on A498 renal, in the assay with SK-MEL-2 melanoma, with HCC-2998 colon, in the assay on HOP-92 NSCLC and with PC-3 prostate was above 25 µM throughout. In addition, the TGI in the assay on SF-295 CNS, with SR leukemia, with HOP-62 NSCLC and in the assay on KM12 colon was above 25 µM in each case.

As for `Cc1c(C)[n+](=O)c(C)c(C)n1[O-]`, the GI50 in the assay on MDA-MB-231 breast was above 100 µM; with A498 renal, above 100 µM; in the assay on HCC-2998 colon it was above 100 µM; in the assay with HOP-92 NSCLC it was 2.91 µM; in the assay on PC-3 prostate it was above 100 µM; in the assay with SF-295 CNS, above 100 µM. The GI50 with SR leukemia, in the assay on HOP-62 NSCLC and with KM12 colon was above 100 µM throughout. In addition, the TGI in the assay on MDA-MB-231 breast, in the assay on A498 renal, in the assay on HCC-2998 colon, with HOP-92 NSCLC, in the assay on PC-3 prostate and in the assay on SF-295 CNS was above 100 µM in each case. In addition, the TGI in the assay with SR leukemia, in the assay with HOP-62 NSCLC and with KM12 colon was above 100 µM each time.

`NC1=NC(c2ccc(Cl)cc2)C2=C(N1)/C(=C/c1ccc(Cl)cc1)CCC2` (stereo not drawn): the GI50 in the assay on MDA-MB-231 breast is above 29.6 µM; with A498 renal, 2.67 µM; in the assay on SK-MEL-2 melanoma, 37.7 µM; in the assay on HCC-2998 colon, 2.11 µM; in the assay on HOP-92 NSCLC, 14.2 µM; with PC-3 prostate, 7.82 µM. The GI50 was 5.71 µM with SF-295 CNS, 3.69 µM with SR leukemia, 15 µM in the assay on HOP-62 NSCLC and 2.32 µM in the assay with KM12 colon. Also, the TGI with MDA-MB-231 breast is above 56.1 µM; with A498 renal, 12.6 µM; with SK-MEL-2 melanoma it was above 70.2 µM; with HCC-2998 colon it was 4.27 µM; with HOP-92 NSCLC it was 40.5 µM; in the assay on PC-3 prostate it was 56.3 µM. Moreover, the TGI was 25.8 µM with SF-295 CNS, 9.84 µM with SR leukemia, 53 µM with HOP-62 NSCLC and 5.27 µM in the assay on KM12 colon.
